# Reference: ChEMBL document CHEMBL1129813, “Synthesis and cell growth inhibitory properties of substituted (E)-1-phenylbut-1-en-3-ones” (Bioorg Med Chem Lett, 1997)
# Test system: K562
# Test: In vitro cell growth inhibitory activity against K562 human chronic myelogenous leukemia cell line
# Type: functional, cell-based
row,Compound,IC50
1,CC(=O)/C=C/c1ccc2c(c1)OCO2,12 µM
2,COc1cc(N(C)C)ccc1/C=C/C(C)=O,68 µM
3,CC(=O)/C=C/c1ccc(N(C)C)cc1,90 µM
4,CC(=O)/C=C/C=C/c1ccccc1,20 µM
5,COc1ccc(/C=C/C(C)=O)c(OC)c1,30 µM
6,CC(=O)/C=C/c1ccco1,> 100 µM
7,COc1ccc(/C=C/C(C)=O)cc1OC,34 µM
8,CC(=O)/C=C/c1ccc(C(C)C)cc1,21 µM
9,COc1ccc(/C=C/C(C)=O)cc1O,42 µM
10,CC(O)CCc1ccc(O)cc1 (configuration not stated),> 100 µM
11,COc1cc(/C=C/C(C)=O)cc(OC)c1O,56 µM
12,CC(=O)/C=C/c1cccs1,20 µM
13,COc1ccc(/C=C/C(C)=O)cc1,79 µM
14,CC(=O)/C=C/c1ccc(Cl)cc1,8.3 µM
15,CC(=O)/C=C/c1ccc(O)cc1,60 µM
16,COc1cc(/C=C/C(C)=O)ccc1O [DEHYDROZINGERONE],68 µM
17,CC(=O)CCc1ccc(O)cc1 [RASPBERRYKETONE],> 100 µM

# Further lines, results first:
row,IC50,Compound
1,7.6 µM,CC(=O)/C=C/c1ccc2ccccc2c1
2,1.9 µM,CC(=O)/C=C/c1c(F)c(F)c(F)c(F)c1F
3,7.9 µM,CC(=O)/C=C/c1ccc(Cl)cc1Cl
4,5.8 µM,COc1cc(/C=C/C(C)=O)cc(OC)c1
5,10.3 µM,CC(=O)/C=C/c1ccc(OCc2ccccc2)cc1
6,5.3 µM,CC(=O)/C=C/c1cc(Br)ccc1F
7,17 µM,COc1cc(/C=C/C(C)=O)cc(OC)c1OC
8,7.4 µM,CC(=O)/C=C/c1ccc(Br)cc1F
9,8.4 µM,CC(=O)/C=C/c1ccc(OCc2ccccc2)c(OCc2ccccc2)c1
10,2.6 µM,CC(=O)/C=C/c1cccc([N+](=O)[O-])c1
11,2.9 µM,CC(=O)/C=C/c1ccc(F)c(Br)c1
12,15 µM,CSc1ccc(/C=C/C(C)=O)cc1
13,9.3 µM,COc1cc(OC)c(/C=C/C(C)=O)c(OC)c1
14,7.5 µM,CC(=O)/C=C/c1ccc(C)cc1
15,6.1 µM,CC(=O)/C=C/c1ccc(F)cc1
16,2.6 µM,CC(=O)/C=C/c1ccc([N+](=O)[O-])cc1
17,3.5 µM,CC(=O)/C=C/c1cccc(C(F)(F)F)c1
18,9.9 µM,COc1cccc(/C=C/C(C)=O)c1O
19,5.6 µM,CC(=O)/C=C/c1ccc(Br)cc1
20,3.3 µM,CC(=O)/C=C/c1ccc(C(F)(F)F)cc1
